From PubChem BioAssay (NCI)
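How tested: cells in 96-well plates exposed to compound for 48 hours at five concentrations. At the TGI there is no net growth.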

How the values were obtained:
Assay in all cases: growth of human tumour cells (NCI), 48 h
SF-539 CNS = system: SF-539 CNS
SK-OV-3 ovarian = system: SK-OV-3 ovarian
UO-31 renal = system: UO-31 renal
SF-268 CNS = system: SF-268 CNS
RPMI-8226 leukemia = system: RPMI-8226 leukemia
A498 renal = system: A498 renal
NCI-H522 lung = system: NCI-H522 lung
TK-10 renal = system: TK-10 renal
T-47D breast = system: T-47D breast
OVCAR-5 ovarian = system: OVCAR-5 ovarian

SMILES | TGI (SF-539 CNS) [µM] | TGI (SK-OV-3 ovarian) [µM] | TGI (UO-31 renal) [µM] | TGI (SF-268 CNS) [µM] | TGI (RPMI-8226 leukemia) [µM] | TGI (A498 renal) [µM] | TGI (NCI-H522 lung) [µM] | TGI (TK-10 renal) [µM] | TGI (T-47D breast) [µM] | TGI (OVCAR-5 ovarian) [µM]
CCOC(=O)C(Cl)(NC(=O)OCc1ccccc1)C(F)(F)F (centres undefined) | > 100 | > 100 | > 100 | > 100 | > 100 | > 100 | > 100 | > 100 | > 100 | > 100
O=C1CC(=O)NC(=NNS(=O)(=O)c2ccc(Cl)cc2)N1 | > 100 | > 100 | > 100 | > 100 | > 100 | > 100 | > 100 | > 100 | > 100 | > 100
CNc1nc(C(N)=O)c(N)s1 | > 100 | > 100 | > 100 | > 100 | > 100 | > 100 | > 100 | > 100 | > 100 | > 100
Cc1ccc(Nc2nc3c(=O)n(C)c(=O)n(C)c3nc2Nc2ccc(C)cc2)cc1 | 26.7 | > 100 | 24.4 | 32.2 | > 100 | 40.2 | 2.42 | 29.9 | 30.3 | 31.2
Cc1nc2sccn2c1/C=C1/C(=O)Nc2cccc(Cl)c21 | > 100 | > 100 | > 100 | > 100 | > 100 | > 100 | > 100 | > 100 | > 100 | > 100
CCOC(=O)NN(C(=O)OCC)c1c(C)cc(C)cc1C | > 100 | > 100 | > 100 | > 100 | > 100 | > 100 | > 100 | > 100 | > 100 | > 100
CN(C)Cc1cc(N=Nc2ccc(Cl)cc2)cc(CN(C)C)c1O | 23.2 | 33.3 | 7.23 | 30.3 | 37 | 29.8 | 5.97 | 21.3 | 33.6 | 
O=C1CC(NCc2ccccc2)c2c(Cl)sc(Cl)c21 (centres undefined) | 57.5 | > 100 | 75.7 | 50.2 | 6.82 | > 100 | 18.3 | > 68.7 | > 100 | > 100
COC(=O)/C=C1/OC(c2ccc(OC)cc2)=C(Cl)C1=O | 41 | 25.2 | 37.7 | 36.8 | 13.6 | 49.1 | 28.6 | 40.1 | 36.6 | 31.6
CN1CC2CN(Cc3ccccc3)CCN2c2cccnc21 (centres undefined) | > 100 | > 100 | > 100 | > 100 | > 100 | > 100 | > 100 | > 100 | > 100 | > 100
CCOC(=O)c1nnc2c(C#N)c(-c3ccccc3)c(C)n2c1N | > 100 | > 100 | > 100 | > 100 | 53.9 | 79.4 | 70.5 | > 100 | > 100 | > 100
O=C(OCCNC(=O)N1CC1)OCCNC(=O)N1CC1 | > 10 | > 10 | > 10 | > 10 | > 10 | > 10 | > 10 | > 10 | > 10 | > 10
CC(C)N(C(C)C)S(=O)(=O)C[C@]12CC[C@H](CC13OCC(CS(=O)(=O)c1ccccc1)O3)C2(C)C (some centres undefined) | > 100 | > 100 | > 100 | > 100 | > 100 | > 100 | > 100 | 98.7 | > 100 | > 100
ClCCCCCc1c2nc(c(CCCCCCl)c3ccc([nH]3)c(CCCCCCl)c3ccc([nH]3)c(CCCCCCl)c3nc1C=C3)C=C2 | > 100 | > 100 | > 100 | > 100 | > 100 | > 100 | > 100 | > 100 | > 100 | > 100
c1ccc([I+]c2ccccc2)cc1 | > 100 | > 100 | > 100 | > 100 | > 100 | > 100 | > 100 | > 100 | > 100 | > 100
O=c1cc(-c2cccnc2)[nH]c2cc3c(cc12)OCO3 | 17.7 | > 67 | > 100 | > 100 | > 100 | > 69.9 | > 21.6 | > 100 | > 100 | > 100
COc1cccc(C2c3cc4c(cc3OC(Nc3ccccc3)C2C)OCO4)c1OC (centres undefined) | > 100 | > 100 | > 100 | > 100 | 17.8 | > 100 | 95 | > 100 | > 100 | > 100
